Data from patent US20130261147A1, “COMPOSITION FOR PREVENTING OR TREATING DEMENTIA” (priority 2010, published 2013).
Entries after “also recorded” stand apart in the source; their conditions may differ.

How the values were obtained:
[1] = test system: Human Beta Amyloid [1-42] (Aβ42) production in HeLa cell line transfected with Human APP; test: Inhibition of Aβ42 production, HeLa cell line transfected with Human APP, colorimetric ELISA of culture medium; format: cell-based; conditions: for inhibitory effect on Aβ42 production, dependence on concentration (in words): over the concentrations tested
Source text: (§1) To investigate in vitro inhibitory activity of Lycoris aurea extracts against beta-amyloid production, a HeLa cell line transfected with Human APP was used. This cell line was provided from Professor Tae-Wan Kim (Department of Pathology, Columbia University Medical Center, New York, N.Y. 10032, USA). For the quantity analysis of major beta-amyloids, Aβ40, and Aβ42, which are resulted from the activity of gamma-secretase secreted from cells, Human Beta Amyloid (Aβ40), and Human Beta Amyloid (Aβ42) Colorimetric ELISA Kit (#KHB3482 and #KHB3442; BioSource International, Inc., USA) were each used.
(§2) The alcohol extracts of Lycoris aurea (CN1-M, see Example 1) with certain concentrations set forth in Table 1 below were added to the cell culture medium (DMEM culture medium #11995; GIBCO) cultured with the transfected HeLa cells, which were then cultured at 37° C. for 8 hours. A transfected HeLa cell culture medium with no treatment, to which no Lycoris aurea alcohol extracts were added, was used as a negative control.

[2] = test system: Human Beta Amyloid [1-40] (Aβ40) production in HeLa cell line transfected with Human APP; test: Inhibition of Aβ40 production, HeLa cell line transfected with Human APP, colorimetric ELISA of culture medium; format: cell-based; conditions: for inhibitory effect on Aβ40 production, dependence on concentration (in words): over the concentrations tested
Source text: as §1, §2

alpha-secretase = test: Alpha-secretase activity assay kit with total membrane proteins from HeLa cells; format: biochemical; conditions: for Activity Change Rate of Alpha-Secretase (%) against Negative Control: 100%: No Change; for change of the activity of the alpha-secretase (in words): 0.01 and 0.1 μg/ml
Source text: In order to investigate which secretase is responsible for the inhibitory effects of the compounds on Aβ production, an activity assay kit (#CBA042; Calbiochem, USA) of the alpha-secretase was used. For the alpha-secretase, the total membrane proteins obtained from the HeLa cells (see Test Example 1) were used.

sAPPα = test: Western blot of sAPPα (product of alpha-secretase activity), band density; format: cell-based; conditions: 0.1 μg/ml; for effect on secretion / production change of sAPPα (in words): Western blot; for Reduction Rate of sAPPα (%) Against Negative Control: band density of Western blot
Method: (§3) Effects of the compounds on the production of a product resulted from the activity of alpha-secretase, sAPPα and a product resulted from the activity of beta-secretase, sAPPβ, were investigated through the Western blot methods of sAPPα and sAPPβ, and the results are shown in FIG. 6. […] The band densities of sAPPα and sAPPβ were measured from the Western blot results of FIG. 6, and the results are shown Table 6 and FIG. 7.

sAPPβ = test: Western blot of sAPPβ (product of beta-secretase activity), band density; format: cell-based; conditions: 0.1 μg/ml; for effect on secretion / production change of sAPPβ (in words): Western blot; for Reduction Rate of sAPPβ (%) Against Negative Control: band density of Western blot
Method: as §3

cells = test: MTT Cell Proliferation assay, cell death activity; format: cell-based; conditions: 8 hours; for cytotoxicity (in words): up to 10 μg/ml
Method: In order to investigate the cell death activity caused by the compounds, lycoricidine and lycoricidinol, MTT Cell Proliferation assay method was used (ATCC catalog #30-1010K, Manassas, USA). After cells were treated with each compound having various concentrations for 8 hours, viable cells were measured quantitatively, and the results are shown in Table 7 and FIG. 8.

O=C1NC2C(=CC(O)C(O)C2O)c2cc3c(cc21)OCO3 (centres unmarked) [Lycoricidine, lycoricidine]
inhibition at 0.01 µg/mL ([1]; Homo sapiens, HeLa, 0.01 μg/ml, read-out: Aβ42 Production Inhibitory Rate (%) against Negative Control): 16%
inhibition at 0.1 µg/mL ([1]; Homo sapiens, HeLa, 0.1 μg/ml, read-out: Aβ42 Production Inhibitory Rate (%) against Negative Control): 81.3%
inhibition at 1 µg/mL ([1]; Homo sapiens, HeLa, 1 μg/ml, read-out: Aβ42 Production Inhibitory Rate (%) against Negative Control): 97.5%
inhibition at 10 µg/mL ([1]; Homo sapiens, HeLa, 10 μg/ml, read-out: Aβ42 Production Inhibitory Rate (%) against Negative Control): 100%
inhibitory effect on Aβ42 production, dependence on concentration (in words) [1]: concentration-dependent
inhibition at 0.01 µg/mL ([2]; Homo sapiens, HeLa, 0.01 μg/ml, read-out: Aβ40 Production Inhibitory Rate (%) against Negative Control): 3.3%
inhibition at 0.1 µg/mL ([2]; Homo sapiens, HeLa, 0.1 μg/ml, read-out: Aβ40 Production Inhibitory Rate (%) against Negative Control): 67%
inhibition at 1 µg/mL ([2]; Homo sapiens, HeLa, 1 μg/ml, read-out: Aβ40 Production Inhibitory Rate (%) against Negative Control): 92.8%
inhibition at 10 µg/mL ([2]; Homo sapiens, HeLa, 10 μg/ml, read-out: Aβ40 Production Inhibitory Rate (%) against Negative Control): 97.2%
inhibitory effect on Aβ40 production, dependence on concentration (in words) [2]: concentration-dependent
Activity Change Rate of Alpha-Secretase (%) against Negative Control (alpha-secretase; 0.01 μg/ml): 106%
Activity Change Rate of Alpha-Secretase (%) against Negative Control (alpha-secretase; 0.1 μg/ml): 110%
change of the activity of the alpha-secretase (in words) (alpha-secretase): did not change the activity
effect on secretion / production change of sAPPα (in words) (sAPPα): did not affect the secretion; also recorded: not significant
Reduction Rate of sAPPα (%) Against Negative Control (sAPPα): 12%
effect on secretion / production change of sAPPβ (in words) (sAPPβ): did not affect the secretion; also recorded: not significant
Reduction Rate of sAPPβ (%) Against Negative Control (sAPPβ): 17%
Cell Death Rate (%) against Negative Control (cells; 0.01 μg/ml): 4.9%
Cell Death Rate (%) against Negative Control (cells; 0.1 μg/ml): 11.3%
Cell Death Rate (%) against Negative Control (cells; 1 μg/ml): 19%
Cell Death Rate (%) against Negative Control (cells; 10 μg/ml): 21.1%
cytotoxicity (in words) (cells): not cytotoxic

O=C1NC2C(=CC(O)C(O)C2O)c2cc3c(c(O)c21)OCO3 (centres unmarked) [Lycoricidinol, lycoricidinol]
Aβ42 Production Inhibitory Rate (%) against Negative Control ([1]; 0.01 μg/ml): 44.0%
Aβ42 Production Inhibitory Rate (%) against Negative Control ([1]; 0.1 μg/ml): 97.0%
Aβ42 Production Inhibitory Rate (%) against Negative Control ([1]; 1 μg/ml): 100%
Aβ42 Production Inhibitory Rate (%) against Negative Control ([1]; 10 μg/ml): 100%
inhibitory effect on Aβ42 production, dependence on concentration (in words) [1]: concentration-dependent
Aβ40 Production Inhibitory Rate (%) against Negative Control ([2]; 0.01 μg/ml): 25.0%
Aβ40 Production Inhibitory Rate (%) against Negative Control ([2]; 0.1 μg/ml): 90.4%
Aβ40 Production Inhibitory Rate (%) against Negative Control ([2]; 1 μg/ml): 97.8%
Aβ40 Production Inhibitory Rate (%) against Negative Control ([2]; 10 μg/ml): 98.4%
inhibitory effect on Aβ40 production, dependence on concentration (in words) [2]: concentration-dependent
Activity Change Rate of Alpha-Secretase (%) against Negative Control (alpha-secretase; 0.01 μg/ml): 94%
Activity Change Rate of Alpha-Secretase (%) against Negative Control (alpha-secretase; 0.1 μg/ml): 100%
change of the activity of the alpha-secretase (in words) (alpha-secretase): did not change the activity
effect on secretion / production change of sAPPα (in words) (sAPPα): did not affect the secretion; also recorded: not significant
Reduction Rate of sAPPα (%) Against Negative Control (sAPPα): 1.0%
effect on secretion / production change of sAPPβ (in words) (sAPPβ): did not affect the secretion; also recorded: not significant
Reduction Rate of sAPPβ (%) Against Negative Control (sAPPβ): 7.5%
Cell Death Rate (%) against Negative Control (cells; 0.01 μg/ml): 10.3%
Cell Death Rate (%) against Negative Control (cells; 0.1 μg/ml): 11.6%
Cell Death Rate (%) against Negative Control (cells; 1 μg/ml): 16.5%
Cell Death Rate (%) against Negative Control (cells; 10 μg/ml): 19.3%
cytotoxicity (in words) (cells): not cytotoxic
